Reference: PubChem BioAssay AID248 (DTP/NCI, 2004)
Where “and” joins values, the source holds several entries; their conditions need not be identical. Identical values can stand only once. Toxic doses and inconclusive results are not listed. Cut-off read from the data, not from the text of the source: active = T/C of 150% or more; inactive = T/C below 125%.

Tested on: L1210 leukemia ip in BDF1 mice, survival T/C
Assay: NCI In Vivo Anticancer Drug Screen. Data for tumor model L1210 Leukemia (intraperitoneal) in B6D2F1 (BDF1) mice
Details: endpoint: mean survival time, higher = longer survival
How it was run: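 Transplanted-tumor mice were given test agent; controls received vehicle only. Survival readings from the two groups were divided (treated over control).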

[1] = dose: 100.0 mg/kg/injection, schedule: Q04DX003 (ip), vehicle: saline with Tween-80
[2] = dose: 100.0 mg/kg/injection, schedule: Q01DX001 (ip), vehicle: saline with Tween-80
[3] = dose: 200.0 mg/kg/injection, schedule: Q01DX001 (ip), vehicle: saline with Tween-80
[4] = dose: 400.0 mg/kg/injection, schedule: Q01DX001 (ip), vehicle: saline with Tween-80
[5] = dose: 100.0 mg/kg/injection, schedule: Q01DX009 (ip), vehicle: Klucel (hydroxypropylcellulose) (HPC)
[6] = dose: 100.0 mg/kg/injection, schedule: Q04DX003 (ip), vehicle: Klucel (hydroxypropylcellulose) (HPC)
[7] = dose: 200.0 mg/kg/injection, schedule: Q01DX009 (ip), vehicle: Klucel (hydroxypropylcellulose) (HPC)
[8] = dose: 200.0 mg/kg/injection, schedule: Q04DX003 (ip), vehicle: Klucel (hydroxypropylcellulose) (HPC)
[9] = dose: 400.0 mg/kg/injection, schedule: Q01DX009 (ip), vehicle: Klucel (hydroxypropylcellulose) (HPC)
[10] = dose: 400.0 mg/kg/injection, schedule: Q04DX003 (ip), vehicle: Klucel (hydroxypropylcellulose) (HPC)
[11] = dose: 100.0 mg/kg/injection, schedule: Q04DX003 (ip), vehicle: saline
[12] = dose: 200.0 mg/kg/injection, schedule: Q04DX003 (ip), vehicle: saline
[13] = dose: 400.0 mg/kg/injection, schedule: Q04DX003 (ip), vehicle: saline

Measured: T/C

CCOC(=O)C1C2OC(=O)C(C(=O)C2N=Nc2ccc(-c3ccc(N=NC4C(=O)C5C(=O)OC4C(C(=O)OCC)C5C4CC=CCC4)cc3)cc2)C1C1CC=CCC1 (stereo unspecified)
inactive: dose: 100.0 mg/kg/injection, schedule: Q01DX001 (ip), vehicle: other 86 % of control | dose: 100.0 mg/kg/injection, schedule: Q01DX009 (ip), vehicle: saline with Tween-80 108 % of control | [1] 100 % of control | dose: 200.0 mg/kg/injection, schedule: Q01DX001 (ip), vehicle: other 86 % of control | dose: 200.0 mg/kg/injection, schedule: Q01DX009 (ip), vehicle: saline with Tween-80 104 % of control | dose: 200.0 mg/kg/injection, schedule: Q04DX003 (ip), vehicle: saline with Tween-80 100 % of control | dose: 400.0 mg/kg/injection, schedule: Q01DX009 (ip), vehicle: saline with Tween-80 102 % of control | dose: 400.0 mg/kg/injection, schedule: Q04DX003 (ip), vehicle: saline with Tween-80 100 % of control

CNc1[nH]c(=S)ncc1C
inactive: dose: 100.0 mg/kg/injection, schedule: Q01DX Z (ip), vehicle: methylcellulose (MC) 100 % of control | dose: 200.0 mg/kg/injection, schedule: Q01DX Z (ip), vehicle: methylcellulose (MC) 99 % of control

C=C(C)CNC(=O)Oc1cccc(NC(=O)OC)c1
inactive: [2] 97 % of control | [3] 95 % of control | [4] 92 % of control

O=C(CN1C(=O)c2ccccc2C1=O)OC(c1ccccc1)c1ccccc1
inactive: [5] 102 % of control | [6] 98 % of control | [7] 104 % of control | [8] 96 % of control | [9] 104 % of control | [10] 96 % of control

CC1=NC(C(=O)O)C(=O)O1 (stereo unspecified)
inactive: dose: 100.0 mg/kg/injection, schedule: Q01DX009 (ip), vehicle: saline 98 % of control | [11] 105 % of control | dose: 200.0 mg/kg/injection, schedule: Q01DX009 (ip), vehicle: saline 93 % of control | [12] 97 % of control | [13] 103 % of control

CC[N+](CC)(CC)CCCCCC[N+](CC)(CC)CC
inactive: dose: 3.15 mg/kg/injection, schedule: Q01DX009 (ip), vehicle: water 113 % of control | dose: 6.25 mg/kg/injection, schedule: Q01DX009 (ip), vehicle: water 103 % of control | dose: 6.25 mg/kg/injection, schedule: Q04DX003 (ip), vehicle: saline 103 % of control | dose: 12.5 mg/kg/injection, schedule: Q01DX009 (ip), vehicle: water 100 % of control and 103 % of control | dose: 12.5 mg/kg/injection, schedule: Q04DX003 (ip), vehicle: saline 104 % of control

O=[N+]([O-])c1ccc(C#[C][Hg][C]#Cc2ccc([N+](=O)[O-])cc2)cc1
inactive: [11] 95 % of control | [12] 91 % of control | [13] 98 % of control

CC1NCCNCCNCCNC(C)c2cccc1n2 (stereo unspecified)
inactive: dose: 25.0 mg/kg/injection, schedule: Q04DX002 (ip), vehicle: saline 90 % of control | dose: 50.0 mg/kg/injection, schedule: Q04DX002 (ip), vehicle: saline 107 % of control | dose: 100.0 mg/kg/injection, schedule: Q04DX002 (ip), vehicle: saline 89 % of control

CSc1ccc(/C=N/NC(N)=S)c(SC)n1
inactive: [6] 98 % of control | [8] 98 % of control | [10] 96 % of control

O=C(C[n+]1ccccc1Cc1ccccc1)c1ccccc1
inactive: [1] 94 % of control | [11] 102 % of control

C[N+](C)(C)CCS(=O)(=O)Cc1ccccc1
inactive: dose: 75.0 mg/kg/injection, schedule: Q01DX001 (ip), vehicle: carboxymethylcellulose (CMC) 110 % of control | dose: 150.0 mg/kg/injection, schedule: Q01DX001 (ip), vehicle: carboxymethylcellulose (CMC) 108 % of control | dose: 300.0 mg/kg/injection, schedule: Q01DX001 (ip), vehicle: carboxymethylcellulose (CMC) 96 % of control

COc1cc(C(=O)Nc2ccccc2F)cc(OC)c1OC
inactive: [5] 92 % of control | [7] 94 % of control | [9] 97 % of control

COc1nccc(SC)n1
inactive: dose: 95.0 mg/kg/injection, schedule: Q04DX003 (ip), vehicle: Klucel (hydroxypropylcellulose) (HPC) 110 % of control | [6] 107 % of control and 91 % of control | dose: 135.0 mg/kg/injection, schedule: Q04DX003 (ip), vehicle: Klucel (hydroxypropylcellulose) (HPC) 105 % of control | [8] 96 % of control and 97 % of control

CCOC(=O)/C=C\CBr
inactive: dose: 4.0 mg/kg/injection, schedule: Q01DX015 (ip), vehicle: carboxymethylcellulose (CMC) 95 % of control | dose: 8.0 mg/kg/injection, schedule: Q01DX015 (ip), vehicle: carboxymethylcellulose (CMC) 93 % of control | dose: 16.0 mg/kg/injection, schedule: Q01DX015 (ip), vehicle: carboxymethylcellulose (CMC) 93 % of control | dose: 32.0 mg/kg/injection, schedule: Q01DX015 (ip), vehicle: carboxymethylcellulose (CMC) 101 % of control | dose: 100.0 mg/kg/injection, schedule: Q01DX001 (ip), vehicle: saline 104 % of control

CC1C2CCC(C2)C(C)C1Br (stereo unspecified)
inactive: dose: 100.0 mg/kg/injection, schedule: Q01DX009 (ip), vehicle: other 99 % of control | dose: 100.0 mg/kg/injection, schedule: Q04DX003 (ip), vehicle: other 102 % of control | dose: 200.0 mg/kg/injection, schedule: Q01DX009 (ip), vehicle: other 96 % of control | dose: 200.0 mg/kg/injection, schedule: Q04DX003 (ip), vehicle: other 102 % of control | dose: 400.0 mg/kg/injection, schedule: Q01DX009 (ip), vehicle: other 96 % of control | dose: 400.0 mg/kg/injection, schedule: Q04DX003 (ip), vehicle: other 109 % of control

CN(C)CCCN1Cc2ccccc2C1
inactive: dose: 44.0 mg/kg/injection, schedule: Q01DX Z (ip), vehicle: saline 96 % of control | dose: 66.0 mg/kg/injection, schedule: Q01DX Z (ip), vehicle: saline 100 % of control | dose: 100.0 mg/kg/injection, schedule: Q01DX Z (ip), vehicle: saline 102 % of control

CCOC(=S)c1cccc(S(=O)(=O)Nc2ccc(OCC)cc2)c1
inactive: [2] 105 % of control | [3] 105 % of control | [4] 108 % of control

O=CNc1ccc2c(c1)Cc1cc(Br)ccc1-2
inactive: dose: 50.0 mg/kg/injection, schedule: Q04DX003 (ip), vehicle: Klucel (hydroxypropylcellulose) (HPC) 97 % of control | [6] 101 % of control | [8] 97 % of control

CC(=O)OCC1OC(N2C(=O)/C(=C/c3ccc(Br)s3)SC2=S)C(OC(C)=O)C(OC(C)=O)C1OC(C)=O (stereo unspecified)
inactive: dose: 25.0 mg/kg/injection, schedule: Q01DX005 (ip), vehicle: other 94 % of control | dose: 50.0 mg/kg/injection, schedule: Q01DX005 (ip), vehicle: other 94 % of control | dose: 100.0 mg/kg/injection, schedule: Q01DX005 (ip), vehicle: other 94 % of control

Cc1ccc(SSSc2ccc(C)cc2[N+](=O)[O-])c([N+](=O)[O-])c1
inactive: dose: 50.0 mg/kg/injection, schedule: Q04DX002 (ip), vehicle: saline with Tween-80 88 % of control | dose: 100.0 mg/kg/injection, schedule: Q04DX002 (ip), vehicle: saline with Tween-80 88 % of control | dose: 200.0 mg/kg/injection, schedule: Q04DX002 (ip), vehicle: saline with Tween-80 98 % of control
